Measured values from PMC7992430 (Journal of medicinal chemistry, 2020).

Legend:
[1] = tested on: G30 neurospheres (glioma stem-like cells, luciferase-transduced); assay: G30 cytotoxicity assay; format: cell-based; conditions: read-out: IC50 in G30 GSCs, 72 h treatment, CellTiter-Glo
[2] = tested on: G9 neurospheres (glioma stem-like cells); assay: G9 cytotoxicity assay; format: cell-based

| SMILES | IC50 [1] [µM] | IC50 ([2]; read-out: IC50 against G9 cells, 80 h treatment, CellTiter-Glo) [µM] | IC50 against G9 cells ([2]; 80 h treatment, CellTiter-Glo) |
| --- | --- | --- | --- |
| N.N.[Cl][Pt][Cl] [cisplatin] | 2 | 4 |  |
| CCCCNC(=O)[O][Pt]([NH2])([NH2])([Cl])([Cl])[O]C(=O)CCC(=O)O [prodrug 4, cis,cis,trans-[Pt(NH3)2Cl2(O2CCH2CH2COOH)(n-butyl Carba-mate)]] |  |  | not active |
